Like-named read-outs stand apart in the source and are kept apart here.
Key:
[1] = tested on: Caco-2 cells; conditions: cited from earlier work
[2] = tested on: mice; conditions: mouse, in vivo, cited from earlier work
[3] = tested on: rats; conditions: rat, in vivo; cited from earlier work
[4] = rat, in vivo, sc; cited from earlier work
[5] = tested on: Caco-2 cells; conditions: human
[6] = in vivo
[7] = in vitro; conditions: human, Caco-2, Papp (apparent permeability coefficient)
[8] = in vivo; conditions: male, Landrace × Large White × Duroc, pig, 0.1 mg/kg
[9] = rat, in vivo; cited from earlier work
[10] = pig, in vivo; cited from earlier work
[11] = monkey, in vivo; cited from earlier work
[12] = male, Landrace × Large White × Duroc, swine, 0.1 mg/kg
[13] = male, Landrace × Large White × Duroc, swine, po, 0.1 mg/kg

**Q.** With aflatoxin M1 as the compound, how does the Papp [1] read?
**A.** 105.10 ± 7.98 ×10^−6 cm/s

**Q.** What does the source list for COc1cc(=O)oc(/C=C/C=C/C=C/C(C)=C/[C@]2(C)O[C@H](C)[C@](C)(O)[C@H]2O)c1C [CTVD, Citreoviridin]?
**A.** LD50 (lethal dose 50%) ([2]; ip): 7.5 mg/kg; LD50 (lethal dose 50%) ([2]; sc): 3.6 to 11.8 mg/kg; outcome of chronic low-dose administration [3]: rats died; CTVD still detected in the liver after 52 h [4]: < 1 % of the total administered dose; persistence of CTVD in organs at 52 h [4]: remained in the liver, kidney, and heart; time at which the concentration of CTVD was highest in the liver [4]: 8 h; Papp (apparent permeability coefficient) [5]: 42.6 ± 17.7 ×10^−6 cm/s; adverse clinical signs [6]: None; plasma CTVD concentration until 3 h after PO ([6]; po, 0.1 mg/kg): almost no increase; time to eliminate CTVD in plasma ([6]; male, Landrace × Large White × Duroc, swine): more than 40 h; F (bioavailability calculated using mean AUC∞ after PO and IV) [6, 12]: 116.4%; Ft (bioavailability calculated using mean AUCt after PO and IV) [6, 12]: 79.3%; Vd (apparent volume of distribution) ([6]; male, Landrace × Large White × Duroc, swine, iv, 0.1 mg/kg): 1.5 ± 0.2 L; extrapolation estimate of AUC (from 48 h to infinity) relative to AUCt ([6]; male, Landrace × Large White × Duroc, swine, po): 68 % of AUCt; Kel (rate constant) [6, 13]: 0.4 ± 0.2 ×10^−1 h^−1; Vd/F (apparent volume of distribution) [6, 13]: 1.7 ± 0.3 L; Papp [7]: 52.2 ± 28.3 ×10⁻⁶ cm/s; AUC(0-inf) ([8]; iv): 1510 ± 332 ng·h/mL; AUC(0-t) ([8]; iv): 1320 ± 224 ng·h/mL; MRT ([8]; iv): 14.6 ± 1.2 h; half-life ([8]; iv): 972 ± 258 min; AUC(0-inf) ([8]; po): 1760 ± 814 ng·h/mL; AUC(0-t) ([8]; po): 1050 ± 181 ng·h/mL; Cmax ([8]; po): 38.2 ± 6.7 ng/mL; MRT ([8]; po): 19.6 ± 4 h; Tmax ([8]; po): 15 ± 6 h; half-life ([8]; po): 1280 ± 762 min

**Q.** Which elimination half-life [9] does the source give for aflatoxin B1 here?
**A.** 91.8 h

**Q.** Which Papp ([1]; Caco-2) does the source give for C[C@H]1CCCC(=O)CCC/C=C/c2cc(O)cc(O)c2C(=O)O1 [zearalenone] here?
**A.** 10.4 ± 4.7 × 10^−6 cm/s

**Q.** And the bioavailability [10]?
**A.** 80–85%

**Q.** Which Papp ([1]; Caco-2) does the source give for CC1=C[C@H]2O[C@@H]3[C@H](O)C[C@](C)([C@@]2(CO)[C@H](O)C1=O)[C@]31CO1 [deoxynivalenol] here?
**A.** 0.19 ± 0.02 × 10^−6 cm/min

**Q.** And the bioavailability [10]?
**A.** 48–109.8%

**Q.** What about the elimination half-life [10] of the same compound?
**A.** 7.2 to 15.2 h

**Q.** For C[C@@H]1Cc2c(Cl)cc(C(=O)N[C@@H](Cc3ccccc3)C(=O)O)c(O)c2C(=O)O1 [ochratoxin A], which elimination half-life [11] is on record?
**A.** 35 days

**Q.** And the bioavailability [10]?
**A.** 65.7%

**Q.** What about the elimination half-life [10] of the same compound?
**A.** 84.5 h

**Q.** For CCCC[C@@H](C)[C@@H](OC(=O)C[C@@H](CC(=O)O)C(=O)O)[C@H](C[C@@H](C)C[C@H](O)CCCC[C@@H](O)C[C@H](O)[C@H](C)N)OC(=O)C[C@@H](CC(=O)O)C(=O)O [fumonisin B1], which elimination half-life [10] is on record?
**A.** 3.03 h

Source: PMC6628624 (Toxins, 2019)
